Measurements: patent US20170038686A1, “ANTHRAQUINONE COMPOUND USED FOR COLOR FILTER OF LCD” (Rohm and Haas Electronic Materials LLC, priority 2014, published 2017)

What was measured:
Assay type in all cases: physicochemical
[1] = Thermal stability of films (chromaticity difference ΔEab before/after hard baking); details: for ΔEab after baking at 230° C. for another 1 h: film further baked at 230° C. under air for another 1 h; for ΔEab after baking at 230° C. for 1 h: film with alkaline soluble acrylic resin, hard bake 230° C. under air 1 h
Procedure: For Inventive Example 1, 0.15 g of Dye 1, 1.35 g of PGMEA and 1 g of alkaline soluble acrylic resin solution (MIPHOTO RPR4022, supplied from Miwan Commercial Co., Ltd., 25 to 35% of solid content in methyl 3-methoxypropionate) were mixed and stirred for 2 hours at room temperature using a shaker. For Inventive Example 2, 0.15 g of a mixture of Dye land Dye 2 was used instead of Dye 1. The solutions were filtered with a 0.45 μm PTFE filter to get rid of big particles. Then the filtered solutions were spin coated onto a clean glass substrate with 200 and 270 rpm spin speed for 18 seconds respectively. The obtained films were first dried at 90° C. under air atmosphere for 30 minutes, and then hard baked at 230° C. under air atmosphere for 1 hour. The CIE values (xyY values and lab values) and the UV-Vis were measured before and after the hard bake.
The obtained dry films were further baked at 230° C. under air for 1 hour to evaluate thermal stability of the films. Optical performance after baking (AEab value) were 2.3 (Inventive Example 1) and 1.8 (Inventive Example 2), and the one of after further baking were 3.0 (Inventive Example 1) and 2.7 (Inventive Example 2). A smaller AEab value indicates better heat resistance.
(§1) <Performance Evaluation> • (1) Thermal stability of dyes (Mass loss measured by TGA): • The thermal stability of dye itself was determined by the mass loss of dye measured by TGA under air atmosphere at 230° C. for 1 hour. This evaluation reflects chemical stability of the dye itself. • (2) Film thickness: • Film thickness is measured by scanning the difference in height across the boundary of film and glass substrate with atomic force microscope. • (3) Chromaticity coordinates: • The chromaticity coordinate of film on a glass sheet is directly recorded with UltraScan Pro (Hunterlab) colorimeter. The light source is D65/10. • (4) Thermal stability of films (Chromaticity): • The wet film after spin coating is dried in oven at 90° C. for 30 minutes and then soft baked at 150° C. for 15 minutes. The chromaticity coordinates (L, a, b) are recorded with UltraScan Pro (Hunterlab) colorimeter. D65/10 light source is used and results are based on CIE Lab coordinates. After that the film is hard baked at target temperature (230° C.) for 1 hour and the new chromaticity coordinates (L′, a′, b′) are recorded with the method above. The thermal stability of a film is indicated by the difference of chromaticity coordinate before and after hard baking represented by the following formula;
ΔE=√{square root over ((L−L′)^2+(a−a′)^2+(b−b′)^2)}

[2] = Solubility of dye in PGMEA; details: solvent PGMEA
[3] = Thermal stability of dyes (mass loss measured by TGA); details: 230° C. for 1 hour, air atmosphere
Procedure: as §1

Row | SMILES | ΔEab after baking at 230° C. for another 1 h [1] | ΔEab after baking at 230° C. for 1 h [1] | Solubility in PGMEA [2] | Mass loss by TGA after baking [3]
1 | Cc1cc(C)c(Nc2ccc(Nc3c(C)cc(O)cc3C)c3c2C(=O)c2ccccc2C3=O)c(C)c1 [(1-((4-hydroxy-2,6-dimethylphenyl)amino)-4-(mesitylamino)-anthraquinone] | 6.0 | 6.8 | 2.8 wt % | –
2 | Cc1cc(C)c(Nc2ccc(Nc3c(C)cc(OCC(O)COc4ccc(C(C)(C)c5ccc(OCC(O)COc6cc(C)c(Nc7ccc(Nc8c(C)cc(C)cc8C)c8c7C(=O)c7ccccc7C8=O)c(C)c6)cc5)cc4)cc3C)c3c2C(=O)c2ccccc2C3=O)c(C)c1 (stereo not drawn) [Dye 1] | 3.0 | 2.3 | 11.2 wt % | 2 wt. %
3 | CC(C)Nc1ccc(NC(C)C)c2c1C(=O)c1ccccc1C2=O [Solvent Blue 36] | – | 33 (color | 1.92 wt % | –
4 | Cc1cc(C)c(Nc2ccc(Nc3c(C)cc(C)cc3C)c3c2C(=O)c2ccccc2C3=O)c(C)c1 [Solvent Blue 104, 1,4-bis(mesitylamino)anthraquinone] | 6.1 | 7.9 | 0.6 wt % | –
